US9809609B2, “Water-soluble benzoazepine compound and its pharmaceutical composition” (OTSUKA PHARMACEUTICAL CO., LTD., priority 2005, dated 2017)
In brackets after ≈: the same amount, converted by molar mass. Marks after values point to notes of the source that are not given here. Each block holds one molecule with its values, some of them ahead of it.

Experiments:
[1] = Solubility of salt of compound (1) in water at 37° C.; format: physicochemical; conditions: thermodynamic from solid, shaking at 37° C. for 30 minutes
Method: A suitable amount of test compound is added to a test tube, and 2.5 ml of water is added thereto. After shaking at 37° C. for 30 minutes, the mixture is filtered through a 0.45-μm membrane filter, and 0.5 ml of the filtrate is accurately weighed. Mobile phase is added thereto to make exactly 50 ml, preparing a test solution (dilution ratio: 100-fold). Approximately 5 mg of free-form authentic sample is accurately weighed, and acetonitrile is added thereto to make exactly 50 ml. A 2 ml of this liquid is accurately weighed, and mobile phase is added thereto to make exactly 20 ml, preparing a standard solution (equivalent to 10 μg/ml). By liquid chromatography under the following conditions, 20 μl of both the test solution and standard solution are tested to obtain the peak areas At and As of the test solution and standard solution. Concentration(μg/ml)=Ws/5×10×At/As×100=Ws×At/As×200 Ws: weighed amount of authentic sample (mg) Test Conditions • Detection: ultraviolet absorption photometer • (measurement wavelength: 254 nm) • Column: TOSOH TSKgel ODS-80Ts (0.46 cm×15 cm) • Column temperature: constant temperature of approximately 40° C. • Mobile phase: water/acetonitrile/trifluoroacetic acid=500/500/1 • Flow rate: 1 ml/min

[2] = Solubility of compound (1b) in buffer solution (room temperature); format: physicochemical; conditions: for Solubility of compound (1b): crystals could not be added in excess; for solubility thermodynamic at 16 days: thermodynamic from solid, shaken 16 days
[3] = Serum concentration of tolvaptan in female rats after tail-vein administration of a compound (1b) solution; format: in vivo; conditions: dose producing 1 mg of tolvaptan per kg of body weight
Method: A solution of compound (1b) (equivalent to 1 mg of tolvaptan per ml of solution) was prepared. [table] A 79 mg quantity of sodium dihydrogenphosphate•dihydrate and 5 g of mannitol were dissolved in about 90 ml of water for injection. A sodium hydroxide solution was added thereto, and a solution of pH 7 was prepared. Compound (1b) equivalent to 100 mg of tolvaptan was dissolved in this solution. A sodium hydroxide solution was added thereto, and the pH was adjusted to 7. […] This solution was rapidly administered to female rats via the tail vein at a dose such that 1 mg of tolvaptan is produced per kg of body weight. From time to time, blood was collected from the jugular vein under light ethyl ether anesthesia, and serum concentration of tolvaptan was determined by high-speed liquid chromatography (HPLC).

[4] = Solubility of tolvaptan in Britton-Robinson buffer and purified water; format: physicochemical; conditions: thermodynamic from solid, shaken 4 hours
Method: Tolvaptan was added in excess to Britton-Robinson buffer (pH 2, pH 7, or pH 12) or purified water, and then shaken at 25° C.±1° C. for 4 hours. Each solution was filtered through a filter, and then, using HPLC, the solubility of tolvaptan was quantified by absolute calibration.

Compound: Cc1ccccc1C(=O)Nc1ccc(C(=O)N2CCCC(OP(=O)([O-])[O-])c3cc(Cl)ccc32)c(C)c1.[Mg+2] (stereo not shown) [Example 7]
solubility at 30 min [1]: > 1000 µg/mL

Compound: Cc1ccccc1C(=O)Nc1ccc(C(=O)N2CCCC(OP(=O)([O-])O)c3cc(Cl)ccc32)c(C)c1.[Na+] (stereo not shown) [Example 8]
solubility at 30 min [1]: > 1000 µg/mL

Compound: Cc1ccccc1C(=O)Nc1ccc(C(=O)N2CCCC(OP(=O)([O-])O)c3cc(Cl)ccc32)c(C)c1.[K+] (stereo not shown) [Example 11]
solubility at 30 min [1]: > 1000 µg/mL

Compound: COP(=O)(NCCO)OC1CCCN(C(=O)c2ccc(NC(=O)c3ccccc3C)cc2C)c2ccc(Cl)cc21 (stereo not shown) [Example 20]
solubility at 30 min [1]: > 1000 µg/mL

The next lines start with the values.

Solubility of compound (1b) ([2]; Citric acid buffer (100 mM), pH before dissolution 8, pH after dissolution 4.2, room temperature): at least 8.3* w/v % | Solubility of compound (1b) ([2]; Sodium hydrogencarbonate buffer (100 mM), pH before dissolution 8, pH after dissolution 3.1, room temperature): at least 7.1* w/v % | Solubility of compound (1b) ([2]; Sodium phosphate buffer (100 mM), pH before dissolution 8, pH after dissolution 3.3, room temperature): at least 7.1* w/v % | Solubility of compound (1b) ([2]; Sodium phosphate buffer (100 mM), pH before dissolution 9, pH after dissolution 3.3, room temperature): at least 7.4* w/v % | Solubility of compound (1b) ([2]; Sodium phosphate buffer (100 mM), pH before dissolution 10, pH after dissolution 3.4, room temperature): at least 6.5* w/v % | Solubility of compound (1b) ([2]; Tris buffer (100 mM), pH before dissolution 9, pH after dissolution 3.4, room temperature): at least 6.3* w/v % | solubility thermodynamic at 16 days ([2]; Tris/HCl buffer, pH 8, aqueous buffer, Tris buffer (100 mM), pH before dissolution 8, pH after dissolution 2.9, room temperature): 7400 µg/mL (≈ 14 mM) | solubility thermodynamic at 16 days ([2]; pH 5, aqueous buffer, Sodium phosphate buffer (100 mM), pH before dissolution 5, pH after dissolution 3.0, room temperature): 5800 µg/mL (≈ 11 mM) | solubility thermodynamic at 16 days ([2]; pH 6, aqueous buffer, Sodium phosphate buffer (100 mM), pH before dissolution 6, pH after dissolution 3.0, room temperature): 13100 µg/mL (≈ 24.8 mM) | solubility thermodynamic at 16 days ([2]; pH 7, aqueous buffer, Sodium phosphate buffer (100 mM), pH before dissolution 7, pH after dissolution 3.1, room temperature): 7600 µg/mL (≈ 14.4 mM) | solubility at 30 min [1]: > 1000 µg/mL | Time at which tolvaptan was initially detected in serum after intravenous administration ([3]; rapid tail-vein administration of compound (1b) solution): five | Hydrolysis of compound (1b) into tolvaptan in rats ([3]; tail-vein administration): rapidly hydrolyzed into tolvaptan | melting point: 150 to 152 °C
Compound: Cc1ccccc1C(=O)Nc1ccc(C(=O)N2CCCC(OP(=O)(O)O)c3cc(Cl)ccc32)c(C)c1 (stereo not shown) [compound (1b)]

solubility thermodynamic at 4 h ([4]; aqueous buffer, Britton-Robinson buffer pH 2, 25° C.±1° C.): 0.2 µg/mL (≈ 0.000445 mM) | solubility thermodynamic at 4 h ([4]; aqueous buffer, Britton-Robinson buffer pH 7, 25° C.±1° C.): 0.3 µg/mL (≈ 0.000668 mM) | solubility thermodynamic at 4 h ([4]; aqueous buffer, Britton-Robinson buffer pH 12, 25° C.±1° C.): 0.2 µg/mL (≈ 0.000445 mM) | solubility thermodynamic at 4 h ([4]; purified water, 25° C.±1° C.): 0.2 µg/mL (≈ 0.000445 mM)
Compound: Cc1ccccc1C(=O)Nc1ccc(C(=O)N2CCCC(O)c3cc(Cl)ccc32)c(C)c1 (stereo not shown) [tolvaptan, Tolvaptan]
